What all share (format): in vivo
Assay [1] relates to Mycosphaerella graminicola; Anamorph: Septoria tritici. Briefly: Leaf blotch of wheat (SEPTTR) fungicidal activity on wheat seedlings. To be noted: Zymoseptoria tritici. In short, it runs like this:
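Compounds in acetone were diluted with nine volumes of water containing 110 ppm Triton X-100 and sprayed to run-off on Yuma wheat seedlings at first-leaf stage. Septoria tritici spores were inoculated before or after treatment, followed by dew chambers at 100% RH and 20 °C, then greenhouse at 20 °C. Severity (0–100%) was scored once untreated plants were fully diseased; control was calculated relative to untreated plants.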

The test system of assay [2] is Puccinia triticina. Briefly: Wheat brown rust (PUCCRT) fungicidal activity on wheat seedlings. In short, it runs like this: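 Compounds in acetone diluted with nine volumes water containing 110 ppm Triton X-100, sprayed to run-off on first-leaf Yuma wheat seedlings inoculated with P. triticina spores before or after treatment. Dark dew room 22° C, 100% RH overnight, then greenhouse 24° C; percent disease control from severity (0-100%) relative to untreated plants.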

Assay [3] relates to Venturia inaequalis. As to the kind of experiment: Apple scab (VENTIN) fungicidal activity. Conditions: 24 h, 1 Day Protectant, read-out: Disease Control VENTIN 1DP. On the procedure: Technical grades of materials were dissolved in acetone, which were then mixed with nine volumes of water containing 110 ppm Triton X-100. The fungicide solutions were applied onto wheat seedlings using an automated booth sprayer to run-off. All sprayed plants were allowed to air dry prior to further handling. Wheat plants (variety Yuma) were grown from seed in a greenhouse in 50% mineral soil/50% soil-less Metro mix until the first leaf was fully emerged, with 7-10 seedlings per pot. These plants were inoculated with an aqueous spore suspension of Septoria tritici either prior to or after fungicide treatments. After inoculation the plants were kept in 100% relative humidity (one day in a dark dew chamber followed by two to three days in a lighted dew chamber at 20° C.) to permit spores to germinate and infect the leaf. The plants were then transferred to a greenhouse set at 20° C. for disease to develop. When disease symptoms were fully expressed on the 1st leaves of untreated plants, infection levels were assessed on a scale of 0 to 100 percent disease severity. Percent disease control was calculated using the ratio of disease severity on treated plants relative to untreated plants. Evaluation of Fungicidal Activity: Apple Scab (Venturia Inaequalis; Bayer Code […]) Apple seedlings (variety McIntosh) were grown in soil-less Metro mix, with one plant per pot. Seedlings with two expanding young leaves at the top (older leaves at bottom of the plants were trimmed) were used in the test. Plants were inoculated with a spore suspension of Venturia inaequalis 24 hr after fungicide treatment and kept in a 22° C. dew chamber with 100% RH for 48 hr, and then moved to a greenhouse set at 20° C. for disease to develop. Fungicide formulation, application and disease assessment on the sprayed leaves followed the procedures as described in the Example A.

In assay [4] the test system is Magnaporthe grisea; Anamorph: Pyricularia oryzae. Briefly: whole plant or invertebrate. Conditions: 24 h, read-out: Disease Control PYRIOR 1DP.
Assay [5] has as its system Erysiphe cichoracearum. Briefly: Powdery mildew of cucumber (ERYSCI) fungicidal activity. Conditions: Golovinomyces cichoracearum, 24 h, 1 Day Protectant, read-out: Disease Control ERYSCI 1DP. How it is done: Technical grades of materials were dissolved in acetone, which were then mixed with nine volumes of water containing 110 ppm Triton X-100. The fungicide solutions were applied onto wheat seedlings using an automated booth sprayer to run-off. All sprayed plants were allowed to air dry prior to further handling. Wheat plants (variety Yuma) were grown from seed in a greenhouse in 50% mineral soil/50% soil-less Metro mix until the first leaf was fully emerged, with 7-10 seedlings per pot. These plants were inoculated with an aqueous spore suspension of Septoria tritici either prior to or after fungicide treatments. After inoculation the plants were kept in 100% relative humidity (one day in a dark dew chamber followed by two to three days in a lighted dew chamber at 20° C.) to permit spores to germinate and infect the leaf. The plants were then transferred to a greenhouse set at 20° C. for disease to develop. When disease symptoms were fully expressed on the 1st leaves of untreated plants, infection levels were assessed on a scale of 0 to 100 percent disease severity. Percent disease control was calculated using the ratio of disease severity on treated plants relative to untreated plants. Evaluation of Fungicidal Activity: Powdery Mildew of Cucumber (Erysiphe cichoracearum; Bayer Code […]) Cucumber seedlings (variety Bush Pickle) were grown in soil-less Metro mix, with one plant per pot, and used in the test when 12 to 14 days old. Plants were inoculated with a spore suspension 24 hr following fungicide treatments. After inoculation the plants remained in the greenhouse set at 20° C. until disease was fully expressed. Fungicide formulation, application and disease assessment on the sprayed leaves followed the procedures as described in the Example A.

The mark [6] stands for this setting: 24 h, 1 Day Protectant, read-out: Disease Control SEPTTR 1 DP.
Setting [7] is: 72 h, 3 Day Curative, read-out: Disease Control SEPTTR 3 DC.
[8] abbreviates: 24 h, 1 Day Protectant, read-out: Disease Control PUCCRT 1 DP.
Where [9] appears, read: 72 h, 3 Day Curative, read-out: Disease Control PUCCRT 3 DC.

Structures are written as SMILES. Where two headings read alike, the source gives them in different places.

On to `COc1ccnc(C(=O)N[C@H]2COC[C@H](Cc3ccccc3)[C@@H](OCC(C)C)[C@H](C)OC2=O)c1O` [Compound 2, N-((3S,7S,8R,9S)-7-benzyl-8-isobutoxy-9-methyl-2-oxo-1,5-dioxonan-3-yl)-3-hydroxy-4-methoxypicolinamide], for which the pest or weed control at 100 ppm in assay [1] (setting [6]), in assay [1] (setting [7]), in assay [2] (setting [8]), in assay [2] (setting [9]), in assay [3] and in assay [4] was 80 to 100% each time.

In the case of `COc1ccnc(C(=O)N[C@H]2COC[C@H](Cc3ccccc3)[C@@H](OCC(C)C)[C@H](C)OC2=O)c1OCOC(=O)C(C)C` [Compound 3], the pest or weed control at 100 ppm in assay [1] (setting [6]) fell in the range of 80 to 100%; in assay [1] (setting [7]) it was 80 to 100%; in assay [2] (setting [8]) it was 80 to 100%; in assay [2] (setting [9]) it was 80 to 100%; in assay [3], 0 to 80%; in assay [5], 80 to 100%.

Take `COc1ccnc(C(=O)N[C@H]2COC[C@H](Cc3ccccc3)[C@@H](OCC(C)C)[C@H](C)OC2=O)c1OCOC(=O)C(C)(C)C` [Compound 7]: the pest or weed control at 100 ppm is 80 to 100% in assay [1] (setting [6]); 80 to 100% in assay [1] (setting [7]); 80 to 100% in assay [2] (setting [8]); 80 to 100% in assay [2] (setting [9]); 0 to 80% in assay [3]; 80 to 100% in assay [5].

In the case of `COc1ccnc(C(=O)N[C@H]2COC[C@H](Cc3ccccc3)[C@@H](OCC(C)C)[C@H](C)OC2=O)c1OCOC(C)=O` [Compound 8, (2-((3S,7S,8R,9S)-7-benzyl-8-isobutoxy-9-methyl-2-oxo-1,5-dioxonan-3-ylcarbamoyl)-4-methoxypyridin-3-yloxy)methyl acetate], the pest or weed control at 100 ppm in assay [1] (setting [6]), in assay [1] (setting [7]), in assay [2] (setting [8]), in assay [2] (setting [9]), in assay [3] and in assay [5] was 80 to 100% each time. Also, the pest or weed control at 100 ppm in assay [4] fell in the range of 80 to 100%.

On to `COc1ccnc(C(=O)N[C@H]2COC[C@H](Cc3ccccc3)[C@@H](OCC(C)C)[C@H](C)OC2=O)c1OC(C)=O` [Compound 9, 2-(((3S,7S,8R,9S)-7-benzyl-8-isobutoxy-9-methyl-2-oxo-1,5-dioxonan-3-yl)carbamoyl)-4-methoxypyridin-3-yl acetate], for which the pest or weed control at 100 ppm in assay [1] (setting [6]), in assay [1] (setting [7]), in assay [2] (setting [8]), in assay [2] (setting [9]), in assay [3] and in assay [5] was 80 to 100% throughout.

Take `COc1ccnc(C(=O)N[C@H]2COC[C@H](Cc3ccccc3)[C@@H](OCC(C)C)[C@H](C)OC2=O)c1OC(=O)OC(C)C` [Compound 10, 2-(((3S,7S,8R,9S)-7-benzyl-8-isobutoxy-9-methyl-2-oxo-1,5-dioxonan-3-yl)carbamoyl)-4-methoxypyridin-3-yl isopropyl carbonate]: the pest or weed control at 100 ppm in assay [1] (setting [6]), in assay [1] (setting [7]), in assay [2] (setting [8]), in assay [2] (setting [9]), in assay [3] and in assay [5] was 80 to 100% in each case.

`COc1ccnc(C(=O)N[C@H]2COC[C@H](Cc3ccccc3)[C@@H](OCCC(=O)N(C)C)[C@H](C)OC2=O)c1OCOC(C)=O` [Compound 15]: the pest or weed control at 100 ppm in assay [1] (setting [6]), in assay [1] (setting [7]), in assay [2] (setting [8]), in assay [2] (setting [9]), in assay [3] and in assay [4] was 0 to 80% each time.

As to `COCCCO[C@@H]1[C@@H](Cc2ccccc2)COC[C@H](NC(=O)c2nccc(OC)c2OCOC(C)=O)C(=O)O[C@H]1C` [Compound 16], the pest or weed control at 100 ppm in assay [1] (setting [6]) lay within 80 to 100%; in assay [1] (setting [7]), 80 to 100%; in assay [2] (setting [8]), 80 to 100%; in assay [2] (setting [9]) it was 80 to 100%; in assay [3] it was 0 to 80%; in assay [5], 80 to 100%. The pest or weed control at 100 ppm in assay [4] lay within 80 to 100%.

For the compound `CCCO[C@@H]1[C@@H](Cc2ccccc2)COC[C@H](NC(=O)c2nccc(OC)c2OCOC(C)=O)C(=O)O[C@H]1C` [Compound 22], the pest or weed control at 100 ppm in assay [1] (setting [6]), in assay [1] (setting [7]), in assay [2] (setting [8]), in assay [2] (setting [9]), in assay [3] and in assay [5] was 80 to 100% throughout. Also, the pest or weed control at 100 ppm in assay [4] is 80 to 100%.

For `COc1ccnc(C(=O)N[C@H]2COC[C@H](Cc3ccccc3)[C@@H](OCCCC(F)(F)F)[C@H](C)OC2=O)c1OCOC(C)=O` [Compound 23], the pest or weed control at 100 ppm fell in the range of 80 to 100% in assay [1] (setting [6]); 80 to 100% in assay [1] (setting [7]); 80 to 100% in assay [2] (setting [8]); 80 to 100% in assay [2] (setting [9]); 0 to 80% in assay [3]; 80 to 100% in assay [5]. For the same compound, the pest or weed control at 100 ppm in assay [4] was in the range of 80 to 100%.

For `CCCCCO[C@@H]1[C@@H](Cc2ccccc2)COC[C@H](NC(=O)c2nccc(OC)c2OCOC(C)=O)C(=O)O[C@H]1C` [Compound 26], the pest or weed control at 100 ppm in assay [1] (setting [6]), in assay [1] (setting [7]), in assay [2] (setting [8]), in assay [2] (setting [9]), in assay [3] and in assay [5] was 80 to 100% each time. The pest or weed control at 100 ppm in assay [4] was 80 to 100%.

Turning to `COc1ccnc(C(=O)N[C@H]2COC[C@H](Cc3ccccc3)[C@@H](OC(=O)c3ccccc3)[C@H](C)OC2=O)c1OCOC(C)=O` [Compound 37], the pest or weed control at 100 ppm in assay [1] (setting [6]) was 80 to 100%; in assay [1] (setting [7]), 80 to 100%; in assay [2] (setting [8]), 80 to 100%; in assay [2] (setting [9]), 80 to 100%; in assay [3] it was 0 to 80%; in assay [4], 80 to 100%.

With `COc1ccnc(C(=O)N[C@H]2COC[C@H](Cc3ccccc3)[C@@H](Oc3ccccc3)[C@H](C)OC2=O)c1OCOC(C)=O` [Compound 40], the pest or weed control at 100 ppm in assay [1] (setting [6]), in assay [1] (setting [7]), in assay [2] (setting [8]), in assay [2] (setting [9]), in assay [3] and in assay [4] was 80 to 100% throughout.

Regarding `COc1ccnc(C(=O)N[C@H]2COC[C@H](Cc3ccccc3)[C@@H](OC3CCCC3)[C@H](C)OC2=O)c1OCOC(C)=O` [Compound 106], the pest or weed control at 100 ppm in assay [1] (setting [6]), in assay [1] (setting [7]), in assay [2] (setting [8]), in assay [2] (setting [9]) and in assay [5] was 80 to 100% each time.

The values are drawn from patent US8835462B2, “Macrocyclic picolinamides as fungicides” (Dow AgroSciences LLC, priority 2012, dated 2014).
